Legend:
[1] = system: Balb/c mice with immobilized hind limb, gastrocnemius; assay: Immobilization-induced muscle atrophy; type: in vivo, mouse; conditions: 10 mg/kg oral
Experimental: Wild type eight-weeks-old male Balb/c mice obtained from the vivarium Fundación Ciencia & Vida Chile (Santiago, Chile) were used. Mice were housed in independent plastic cages, fed ad libitum in a room maintained at 25° C. with a 12-h:12-h light:dark cycle.
Twenty-four hours before and during the 3 days of immobilization procedures, animals receive oral administration via feeding tubes (15 gauge) of vehicle (50% Polyethylene glycol 400 (Sigma-Aldrich P3265) in distilled water or 10 mg/kg of test compound formulated in vehicle.
One hindlimb is immobilized with a plastic stick placed over and under the limb and fixed with a medical adhesive bandage. Animals were daily monitored. The immobilization procedure prevents movement of the immobilized leg alone. After 3 days, the animals were sacrificed and gastrocnemius muscle is removed from both hindlimbs, the contralateral, non-immobilized leg being used as an internal control.
For in vivo measurements of protein synthesis, puromycin (Sigma-Aldrich, P8833) is prepared at 0.04 μmol/g body weight in a volume of 200 μl of PBS, and subsequently administered into the animals via intraperitoneal injection, 30 min prior to muscle collection.
Upon collection, muscles were immediately frozen in liquid nitrogen and stored at −80° C. […] Protein concentration in supernatants is determined using BCA Protein Assay Kit (Pierce). […]
Puromycin (12D10) (Merck Millipore), ATF4 (Abcam), Atrogin-1 (ECM Biosciences), MuRF-1 (Santa Cruz Biotechnology) and β-actin (Sigma-Aldrich) antibodies were used as primary antibodies. […] Quantification of protein bands is done by densitometry using ImageJ software.
Expression of ATF4 and the muscle atrophy markers, Atrogin-1 and MuRF-1, of gastrocnemius derived from mobilized and immobilized hind limbs of mice treated with vehicle or compound 58 are shown in FIG. 9C. […] The levels were normalized to β-actin expression and percentage is calculated as the percent relative to the expression of mobile hind limb from control mice (Vehicle) which corresponds to 100%. […]

[2] = system: Balb/c mice with denervated hind limb, tibialis anterior; assay: Denervation-induced muscle atrophy; type: in vivo, mouse
Experimental: Wild type eight-weeks-old male Balb/c mice obtained from the vivarium Fundación Ciencia & Vida Chile (Santiago, Chile) were used. Mice were housed in independent plastic cages in a room maintained at 25° C. with a 12-h:12-h light:dark cycle.
After a deeply anesthetized (isoflurane inhaled in medical oxygen), mice were denervated by surgical removal of ˜2 mm of sciatic nerve from one hindlimb. The incisions were closed using sutures. All procedures were performed under sterile conditions and the mice were daily monitored.
After seven days of denervation, animals receive oral administration every day via feeding tubes (15 gauge) of vehicle (50% Polyethylene glycol 400 (Sigma-Aldrich P3265) in distilled water) or 10 mg/kg of compound 58 formulated in vehicle solution.
After 14 days of denervation, animals were sacrificed and tibialis anterior were removed from both hindlimbs. Muscles derived from non-denervated hind limb were used as control.
Upon collection, muscles were immediately frozen in liquid nitrogen and stored at −80° C. The frozen muscles were then homogenized with a T 10 basic ULTRA-TURRAX (IKa) in ice-cold buffer lysis (Cell Signaling 9803) and protease and phosphatase inhibitors (Roche). Lysates were sonicated for 3 min and centrifuged at 13,000 rpm for 20 minutes at 4° C. Protein concentration in supernatants was determined using BCA Protein Assay Kit (Pierce). Equal amount of protein was loaded on SDS-PAGE gels. […]
ATF4 (Abcam), Atrogin-1 (ECM Biosciences), MuRF-1 (Santa Cruz Biotechnology) and R-actin (Sigma-Aldrich) antibodies were used as primary antibodies. […] Quantification of protein bands was done by densitometry using ImageJ software.
Expression of ATF4 and the muscle atrophy markers, Atrogin-1 and MuRF-1, of tibialis anterior derived from control and denervated hind limbs of mice treated with vehicle or compound 58 are shown in FIG. 11A. […] The levels were normalized to pi-actin expression and percentage was calculated as the percent relative to the expression of non-denervated hind limbs from control mice (Vehicle) which corresponds to 100%. […]

O=C(NN1CCN(C[C@@H](O)COc2ccc(Cl)c(F)c2)CC1)c1ccc2cc(Cl)ccc2n1 [Compound 58, (R)-6-chloro-N-(4-(3-(4-chloro-3-fluorophenoxy)-2-hydroxypropyl)piperazin-1-yl)quinoline-2-carboxamide]
reduction: ATF4 expression in gastrocnemius ([1]; vs vehicle (FIG. 9D)) | Atrogin-1 expression in gastrocnemius ([1]; vs vehicle (FIG. 9E)) | MuRF-1 expression in gastrocnemius ([1]; vs vehicle (FIG. 9F)) | ATF4 expression in tibialis anterior ([2]; 10 mg/kg oral every day from day 7 to 14, vs vehicle (FIG. 11B)) | Atrogin-1 expression in tibialis anterior ([2]; 10 mg/kg oral every day from day 7 to 14, vs vehicle (FIG. 11C)) | MuRF-1 expression in tibialis anterior ([2]; 10 mg/kg oral every day from day 7 to 14, vs vehicle (FIG. 11D))
